One assay addresses T1, Menin-MLL (Homo sapiens, UniProt O00255).
T1 construct: His-Menin (M1-L615 end); purchased BIORTUS BP9210
T1 sequence (O00255 1-615 isoform O00255-1): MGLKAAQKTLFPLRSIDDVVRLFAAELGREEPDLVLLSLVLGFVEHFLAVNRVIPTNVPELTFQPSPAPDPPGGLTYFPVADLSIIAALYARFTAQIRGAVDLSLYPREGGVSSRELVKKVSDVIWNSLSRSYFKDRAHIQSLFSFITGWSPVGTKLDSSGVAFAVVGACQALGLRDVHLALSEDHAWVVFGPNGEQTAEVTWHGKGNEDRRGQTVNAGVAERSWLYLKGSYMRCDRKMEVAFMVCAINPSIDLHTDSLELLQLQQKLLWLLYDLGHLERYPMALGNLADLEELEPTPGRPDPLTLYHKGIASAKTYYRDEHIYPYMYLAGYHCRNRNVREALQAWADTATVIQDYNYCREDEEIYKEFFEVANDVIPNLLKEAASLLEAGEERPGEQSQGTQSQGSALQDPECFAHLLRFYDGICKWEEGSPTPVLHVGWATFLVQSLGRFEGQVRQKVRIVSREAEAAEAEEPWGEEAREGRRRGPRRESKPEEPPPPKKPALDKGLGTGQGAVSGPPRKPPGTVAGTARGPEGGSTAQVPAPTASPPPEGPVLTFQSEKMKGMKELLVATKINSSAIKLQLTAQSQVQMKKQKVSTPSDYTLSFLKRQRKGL
Description: Inhibitory activity against Menin-MLL binding (fluorescence polarization). Particulars: 150 nM His-Menin, 15 nM FITC-MLL, 25°C for 60 min. The method in brief: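 His-Menin (M1-L615, 150 nM) preincubated with compound 15 min at 25 °C in HEPES pH 7.5, 50 mM NaCl, 1 mM DTT, 0.01% BSA, then 15 nM FITC-MLL4-43 peptide added for 60 min at 25 °C. Fluorescence polarization read; IC50 from 4-parameter logistic fit, duplicates.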
Background: In fluorescence polarisation assays a small probe gives low polarisation when free and higher when bound to something large.

Assay [1] relates to MV-4-11 (carrying MLL-AF4). Description: Inhibition of proliferation of human tumor cells (Alamar Blue, 7 days), MV-4-11. The class given is cell-based. Particulars: Homo sapiens, MV4-11, 168 h, MV-4-11 cells (carrying MLL-AF4), method calls the value GI50. The method in brief:
(§1)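 Cells seeded at 4,000/well (MV-4-11, MOLM-13) or 3,000/well (KG-1a), treated in duplicate with serial compound dilutions for 7 days at 37°C, 5% CO2. Alamar Blue fluorescence read on Day 7, normalised to 0.1% DMSO Day-7 (high) and Day-0 (low) controls; GI50 derived.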
Background: Resazurin is reduced to fluorescent resorufin, in cell work by metabolically active cells.

Assay [2] concerns MOLM-13 (carrying MLL-AF9). Description: Inhibition of proliferation of human tumor cells (Alamar Blue, 7 days), MOLM-13. The class given is cell-based. To be noted: Homo sapiens, MOLM-13 cells (carrying MLL-AF9), method calls the value GI50. The method in brief:
as §1

For the next assay, the system named is MEIS1 gene expression. Description: Inhibition of MEIS1 gene expression in human tumor cells (qRT-PCR), MV-4-11. Particulars: MV4-11, MV-4-11 (carrying MLL-AF4), 48 hours of incubation, relative MEIS1 gene expression vs GAPDH, read-out: MV-4-11 MEISI EC50. The class given is cell-based. The text has this: Experimental Example 3: Evaluation of Inhibitory Activity of Compounds Against MEISI Gene Expression in Human Tumor Cells
The effect of test samples on MEIS1 gene expression in vitro cultured human leukemia cells MV-4-11 (carrying MLL-AF4), MOLM-13 (carrying MLL-AF9), and OCI-AML3 (carrying NPM1c) was studied.
• Human acute lymphoblastic leukemia cells MV-4-11, purchased from American Type Culture Collection, Catalog Number: CRL-9591; • Human acute myeloid leukemia cells MOLM-13, purchased from COBIOER BIOSCIENCES CO., LTD, Catalog Number: CBP60678; • Human acute myeloid leukemia cells OCI-AML3, purchased from COBIOER BIOSCIENCES CO., LTD, Catalog Number: CBP60817; • MEIS1 Primer/Probe, purchased from IDT, Catalog Number: 40831613; and • GAPDH Primer/Probe, purchased from IDT, Catalog Number: 22214836.
MV-4-11 cells were cultured in an IMDM medium containing 10% fetal bovine serum, or MOLM-13 and OCI-AML3 cells were cultured in an RPMI-1640 medium containing 20% fetal bovine serum, each supplemented with 100 U·mL^-1 penicillin and 100 µg·mL^-1 streptomycin. These cells were cultured at 37°C with 5% CO2. The suspensions of individual cell lines were prepared in their respective media and seeded into 48-well plates at a density of 100,000 cells/well. On the day of the experiment, a compound stock solution was diluted in a 6-fold gradient using DMSO. Each gradient-diluted stock solution was then further diluted 250-fold with a complete medium to prepare a series of working solutions at different concentrations. Next, 250 µL of working solution (containing the complete medium with a 2-fold serial concentration of the test compound or a positive control compound, or containing a control complete medium) was added to each well. After 48 hours of incubation, cells from the 48-well plate were collected into 1 mL centrifuge tubes, centrifuged at 1000 rpm for 5 minutes, and the complete medium was removed. Cells were washed twice with 1 mL PBS and centrifuged to remove PBS. Total RNA was extracted using the RNeasy Mini Kit (250) (QIAGEN, 74106). The threshold cycle (Ct) value for gene expression was determined using the HiScript II U+ One Step qRT-PCR Probe Kit (Vazyme) (Vazyme, Q223-01), with 3 replicates per sample. The prepared reaction mixture was placed in an ABI 7500 real-time PCR instrument, and the reaction proceeded following the procedures below. [formula]
Next, for the relative MEIS1 gene expression, the concentration (EC50) that inhibits 50% of relative MEIS1 gene expression was calculated using GraphPad Prism 8 software.

Another assay concerns KG-1a (wild-type MLL). Description: Inhibition of proliferation of human tumor cells (Alamar Blue, 7 days), KG-1a control cell line. The class given is cell-based. Particulars: 168 h, KG-1a cells (wild-type MLL, control cell line), method calls the value GI50. The source says: Experimental Example 2: Evaluation of Inhibitory Activity of Compounds Against Proliferation of Human Tumor Cells
• Human acute lymphoblastic leukemia cells MV-4-11, purchased from American Type Culture Collection, Catalog Number: CRL-9591; • Human acute myeloid leukemia cells MOLM-13, purchased from COBIOER BIOSCIENCES CO., LTD, Catalog Number: CBP60678; • Human acute myeloid leukemia cells KG-1a, purchased from American Type Culture Collection, Catalog Number: CCL-246.1; • Inverted Microscope, purchased from Olympus Tokyo; • Countess™ Automated Cell Counter, purchased from Invitrogen, Model: C10281; and • Multilabel Reader, purchased from Bio-Tek, Model: Synergy HT.
MV-4-11 cells were cultured in an IMDM medium containing 10% fetal bovine serum, KG-a cells were cultured in an IMDM medium containing 20% fetal bovine serum, or MOLM-13 cells were cultured in an RPMI-1640 medium containing 20% fetal bovine serum, each supplemented with 100 U·mL^-1 penicillin and 100 µg·mL^-1 streptomycin. These cells were cultured at 37°C with 5% CO2. The suspensions of individual cell lines were prepared in their respective media and seeded into 96-well plates at a density of 4,000 cells/well for MV-4-11 and MOLM-13 cells, or 3,000 cells/well for KG-1a cells. On the day of the experiment, a compound stock solution was diluted in a 3-fold or 4-fold gradient using DMSO. Each gradient-diluted stock solution was then further diluted 250-fold with a complete medium to prepare a series of working solutions at different concentrations. Subsequently, 100 µL of working solution (containing a 2-fold concentration series of the test compound) was added to each well, with duplicate wells set up for each concentration.
Seven days after compound addition (on Day 7), an Alamar Blue assay reagent (MCE, HY-111391 / CS-0040317) was added to measure the fluorescence intensity in each well. Wells containing the cells in the growth medium supplemented with 0.1% DMSO (Day 7) served as high-read control wells. The readouts from the wells containing the cells in the growth medium supplemented with 0.1% DMSO on the day of compound addition (Day 0) served as low-reading control well. GraphPad Prism software was used to calculate the concentration required to inhibit 50% of cell proliferation (GI50), which serves as a cell proliferation inhibition activity index.

Where [3] appears, read: fluorescence polarization, read-out: Menin-MLL IC50.
[4] abbreviates: Menin-MLL IC50, fluorescence polarization.

Read-outs that look alike come from different tables or passages of the source.

Consider `Cc1cncc2c(-c3ccc(F)cc3C(=O)N3CCOC[C@H]3C)cc(CC3CN(CC4CCOCC4)C3)n12` [Example 260], for which the IC50 (usually the concentration at which inhibition is half-maximal) at Menin-MLL (setting [3]) stood at 3 nM; in assay [1] it was 7.1 nM; in assay [2] (MOLM-13, 168 h), 10 nM. The EC50 – broadly, the concentration giving half of the maximal effect – with MEIS1 gene expression was found to be 7.6 nM.

Consider `Cc1nc(F)c2c(-c3ccc(F)cc3C(=O)N3CCOC[C@H]3C)cc(C3CN([C@@H](CO[C@H]4CCCN(C)C4)C(C)C)C3)cn12` [Example 321-1, (3R)-4-[5-fluoro-2-(1-fluoro-3-methyl-6-{1-[(2R)-3-methyl-1-{[(3S)-1-methylpiperidin-3-yl]oxy}butan-2-yl]azacyclobutan-3-yl}imidazo[1,5-a]pyridin-8yl)benzoyl]-3-methylmorpholine], for which the IC50 amounted to 10.7 nM at Menin-MLL (setting [3]), 6.4 nM in assay [1] and 46 nM in assay [2] (168 h). For the same compound, the EC50 with MEIS1 gene expression turned out to be 53 nM.

On to `CCN(C(=O)c1cc(F)ccc1-c1cc([C@H]2CC[C@@H](NCc3ccc(-c4cc(OC)c(OC)nn4)cc3)CC2)cn2cncc12)C(C)C` [Example 18-1, N-ethyl-5-fluoro-N-(isopropyl)-2-{6-[(1s,4s)-4-({[4-(5,6-dimethoxypyridazin-3-yl)phenyl]methyl}amino)cyclohexyl]imidazo[1,5-a]pyridin-8-yl}benzamide], for which the IC50 is 6 nM on Menin-MLL (setting [4]); 18 nM in assay [1]; 61 nM in assay [2] (MOLM-13, 168 h); 9700 nM in the assay on KG-1a (wild-type MLL).

On Menin-MLL (setting [4]), `CCN(C(=O)c1cc(F)ccc1-c1cc(C2CCN(C[C@H]3CC[C@H](NS(=O)(=O)CC)CC3)C2)cn2c(C)ncc12)C(C)C` (mixture of isomers) [Example 30, N-ethyl-5-fluoro-2-[3-methyl-6-(1-{[(1r,4r)-4-ethanesulfonamidocyclohexyl]methyl}pyrrolidin-3-yl)imidazo[1,5-a]pyridin-8-yl]-N-(isopropyl)benzamide] had an IC50 of 6 nM. Also, the EC50 in the assay with MEIS1 gene expression stood at 20 nM.

Regarding `COCCN(C)CCCC(C(C)C)N1CC(c2cc(-c3ccc(F)cc3C(=O)N3CCOC[C@H]3C)c3cnn(C)c3c2)C1` (stereo partly drawn) [Example 162], the IC50 on Menin-MLL (setting [3]) was 24 nM; in assay [1] it was 27 nM; in assay [2] (168 h), 67 nM; in the assay on KG-1a (wild-type MLL) it was 7000 nM.

Consider `Cc1cncc2c(-c3ccc(F)cc3C(=O)N(CC(F)F)C(C)C)cc(CC3CN(CC4CCOCC4)C3)n12` [Example 206, N-(2,2-difluoroethyl)-5-fluoro-2-[4-methyl-6-({1-[(oxacyclohexan-4-yl)methyl]azacyclobutan-3-yl}methyl)pyrrolo[1,2-a]pyrazin-8-yl]-N-(isopropyl)benzamide], for which the IC50 on Menin-MLL (setting [3]) is 3.5 nM; in assay [1] it was 3.5 nM; in assay [2] (168 h), 15 nM; in the assay with KG-1a (wild-type MLL) it was 20000 nM.

For `CCN(C(=O)c1cc(F)ccc1-c1cc(C2CN(CC3CCN(C(C)=O)CC3)C2)cn2c(C)ncc12)C(C)C` [Example 289, 2-(6-{1-[(1-acetylpiperidin-4-yl)methyl]azacyclobutan-3-yl}-3-methylimidazo[1,5-a]pyridin-8-yl)-N-ethyl-5-fluoro-N-(isopropyl)benzamide], the IC50 on Menin-MLL (setting [3]) came to 10 nM; in assay [1], 11 nM; in assay [2] (168 h), 45 nM; in the assay on KG-1a (wild-type MLL) it was 20000 nM.

Take `COCC1CN(CCC[C@H](C(C)C)N2CC(c3cc(-c4ccc(F)cc4C(=O)N4CCOC[C@H]4C)c4c(F)nc(C)n4c3)C2)C1` [Example 203]: the IC50 amounted to 3.3 nM on Menin-MLL (setting [3]), 2.1 nM in assay [1], 5.6 nM in assay [2] (168 h) and 20000 nM with KG-1a (wild-type MLL).

Take `Cc1nc(F)c2c(-c3ccc(F)cc3C(=O)N3CCOC[C@H]3C)cc(C3CN([C@H](CC[C@@H]4CNCCO4)C(C)C)C3)cn12` [Example 245-1, (3R)-4-[5-fluoro-2-(1-fluoro-3-methyl-6-{1-[(3R)-4-methyl-1-[(2R)-morpholin-2-yl]pentan-3-yl]azacyclobutan-3-yl}imidazo[1,5-a]pyridin-8yl)benzoyl]-3-methylmorpholine]: the IC50 at Menin-MLL (setting [3]) came to 8.5 nM; in assay [1], 6.6 nM; in assay [2] (168 h), 40 nM; in the assay on KG-1a (wild-type MLL) it was 20000 nM.

In the case of `COCCN(C)CCCC(C(C)C)N1CC(c2cc(-c3ccc(F)cc3C(=O)N(CC(F)F)C(C)C)c3cnc(C)n3c2)C1` (stereo not drawn) [Example 149], the IC50 on Menin-MLL (setting [3]) stood at 8.5 nM; in assay [1], 2.1 nM; in assay [2] (168 h), 8.3 nM; in the assay with KG-1a (wild-type MLL), 5300 nM.

As to `CCC(=O)N1CCC(CN2CC(Cc3cc(-c4ccc(F)cc4C(=O)N4CCOC[C@H]4C)c4cncc(C)n34)C2)CC1` [Example 287], the IC50 at Menin-MLL (setting [3]) is 6 nM; in assay [1], 9 nM; in assay [2] (168 h), 48 nM; in the assay with KG-1a (wild-type MLL), 20000 nM.

Source of the values: patent EP4782453A1 (Beyang Therapeutics Co., Ltd., priority 2023, dated 2025).
